Results on 1 substance are retold here after publication PMC8022858, “Discovery of bone morphogenetic protein 7-derived peptide sequences that attenuate the human osteoarthritic chondrocyte phenotype” (Molecular Therapy. Methods & Clinical Development, 2021).

This assay has as its system OA-HACs. The assay can be described thus: sGAG content of OA-HAC cultures (DMB assay). Particulars: three individual OA-HAC donors, 100 nM peptide, 24 h, normalized to total protein (Figure 2D). Format: cell-based, human. On the procedure:
Figure 2 Bioactivity of BMP7-derived peptides p[63−82] and p[113−132] on OA-HACs Complete peptide library screening quantitative real-time PCR dataset for peptides p[63−82] and p[113−132] is presented. (A) SOX9, COL2A1, and NKX3-2 mRNA expression in the 18 OA-HAC pool exposed to 1,000, 100, 10, or 1 nM of peptide p[63−82] and p[113−132] is shown and presented relative to control (black bars) and alongside full-length BMP7 (white bars). (B) Similar to (A) but for chondrocyte hypertrophy-associated genes RUNX2, COL10A1, and ALPL. (C) Similar to (A) but for cartilage extracellular matrix remodeling-associated genes MMP13 and ADAMTS5 and inflammation-related genes COX-2 and IL-6. […] (G) In the same OA-HAC pool of 18 OA-HAC donors from the peptide library screening, sequence dependency of peptides p[63−82] and p[113−132] was determined by exposing the OA-HAC pool to scrambled versions of peptides p[63−82] and p[113−132] […] Error bars represent mean ± SEM, and statistical significance for peptide conditions or BMP7 versus control condition as determined by unpaired two-tailed Student’s t test is represented as ∗p < 0.05, ∗∗p < 0.01, and ∗∗∗p < 0.001.
The sGAG content was measured using a modified dimethyl methylene blue (DMB) assay.[58] The absorbance of samples was read at 540 and 595 nm using a spectrophotometer (Multiskan FC; Thermo Fisher Scientific). […]

As for H-AAYYSEGESAFPLNSYMNAT-OH [p[63−82]], the “sulfated glycosaminoglycan (sGAG) content” value was “increased”.
